Assay results from patent US9708498B2, “Azo compound, ink containing azo compound, display including said ink and electronic paper” (MITSUBISHI CHEMICAL CORPORATION, priority 2012, dated 2017).

Legend:
Format in all cases: physicochemical
[1] = Solubility C of the compound in n-decane at 5° C. (saturated solution, absorbance) and product εC; details: for Solubility C: in n-decane at 5° C., 24 hours, 0.1-μm filter; for εC: product of ε and saturation concentration C in n-decane at 5° C.
Experimental: The solubility C of each compound in n-decane was determined in the following manner. Each of compounds 1 to 11 and comparative compound 1 was added to n-decane until some of the compound came to remain undissolved, and the mixture was subjected to an ultrasonic treatment at 30° C. for 30 minutes.
After the addition, each mixture was subjected to a 30-minute ultrasonic treatment at 30° C. This mixture was allowed to stand at 5° C. for 24 hours and then subjected to centrifugal filtration with a 0.1-μm filter using a miniature centrifugal machine (centrifugal force, 5,200×g). The saturated solution obtained was diluted to an adequate concentration and examined for absorption spectrum with Hitachi Spectrophotometer U-4100 using a quartz cell having a measuring optical-path length of 10 mm. The concentration of each compound was determined from a relationship between the absorbance at the absorption maximum wavelength λmax (nm) and the molar extinction coefficient ε (L·mol^−1·cm^−1) determined beforehand, and the solubility C (mol·L^−1) thereof was calculated. Furthermore, the product εC of the molar extinction coefficient ε (L·mol^−1·cm^−1) and the solubility C (mol·L^−1) was determined.

[2] = Absorption spectrum of n-decane solution: solution color, absorption maximum wavelength λmax, molar extinction coefficient ε; details: for Absorption maximum wavelength λmax: 10 mm quartz cell; for ε (molar extinction coefficient): at λmax
Experimental: The solution color, absorption maximum wavelength (λmax), solubility C in 5° C. n-decane, molar extinction coefficient ε, and εC of each ink are summarized in Table 4.
One milligram of each of compound 1 and comparative compounds 1 and 2 was dissolved in 100 mL of the solvent, and the solution was examined for absorption spectrum with Hitachi Spectrophotometer U-4100 using a quartz cell having a measuring optical-path length of 10 mm. From the spectrum obtained, the absorption maximum wavelength λmax (nm) and the molar extinction coefficient E (L·mol^−1·cm^−1) were determined.

[3] = Light fastness test (xenon light weatherometer, retention of absorbance); details: retention of absorbance at λmax; n-decane solution, xenon light 340 nm, 0.55 W/m^2, 40 hours, 33° C.
Experimental: The light fastness of compounds 1 to 3, 5, and 7 to 11 and comparative compound 1 was determined in the following manner. In 0.99 g of n-decane was dissolved 0.01 of each compound. This solution was introduced into a cell having an optical-path length of 0.004 mm, and this cell was sealed with an epoxy resin. Using a weatherometer (Atlas Ci4000), the cell was irradiated with xenon light (340 nm; irradiance, 0.55 W/m^2) for 40 hours. During the irradiation, the internal temperature of the test chamber was kept at 33° C.
The retention of each compound was calculated using the following equation.

[4] = Relative permittivity of solvent (impedance meter method); details: 1 kHz, 22° C.
Text: Precision LCR Meter 4284A, manufactured by Agilent Technologies, Inc., was used to make a measurement by the impedance meter method. […] Relative permittivity=(equivalent parallel capacitance)×(electrode spacing)/(electrode area)/(permittivity of vacuum (ε0))

[5] = Solubility of solvent in water (gas chromatography); details: pure water, 25° C.
Experimental: Into a 110-mL vial were introduced 30 g of pure water and 8 g of the solvent. This vial was shaken for 4 hours at a frequency of 200 times per minute in a 25° C. thermostatic chamber. The liquid which had undergone the shaking was centrifuged (6,000×g; for 5 minutes), and the aqueous layer was sampled. The concentration of the solvent dissolved therein was determined by gas chromatography.

SMILES	Solubility C [1]	εC [1]	Absorption maximum wavelength λmax [2] [nm]	ε (molar extinction coefficient) [2] [L/mol/cm]	Light fastness [3]	relative permittivity [4]	solubility at 4 h [5] [µg/mL]
CCCCc1ccc(N=Nc2cc(C(=O)OCCC)c(N=Nc3ccc(N(CC(CC)CCCC)CC(CC)CCCC)cc3C)s2)cc1 (stereo not drawn) [Compound 7]	17.4 mass %	9500 cm⁻¹	590	51000	A (retention of 100-90%)	–	–
CCCCC(CC)CN(CC(CC)CCCC)c1ccc(N=Nc2sc(N=Nc3ccc(CCC)cc3)c(C)c2C#N)c(NC(C)=O)c1 (stereo not drawn) [Compound 3]	≧34.3 mass %	≧20000 cm^−1	617	70000	A (retention of 100-90%)	–	–
CCCCc1ccc(N=Nc2cc(C#N)c(N=Nc3sc(N(CC(CC)CCCC)CC(CC)CCCC)nc3C(C)(C)C)s2)c(C)c1 (stereo not drawn) [Compound 11]	≧19.7 mass %	≧12000 cm^−1	595	59000	A (retention of 100-90%)	–	–
CCCCCCSc1nnc(N=Nc2cc(OC)c(N(Cc3ccc(C(C)(C)C)cc3)Cc3ccc(C(C)(C)C)cc3)cc2NC(C)=O)s1 [compound 1, reference compound]	9.1 mass %	4700 cm⁻¹	526	50000	D (retention of 49% or less)	–	–
CCCCc1ccc(N=Nc2sc(N=Nc3cc(OCC)c(N(CC(CC)CCCC)CC(CC)CCCC)cc3OCC)c(C#N)c2C)cc1 (stereo not drawn) [Compound 4]	≧10.5 mass %	≧6000 cm^−1	638	54000	A (retention of 100-90%)	–	–

Second part, the molecule after the results:

Solubility C [1]	εC [1]	Absorption maximum wavelength λmax [2] [nm]	ε (molar extinction coefficient) [2] [L/mol/cm]	Light fastness [3]	relative permittivity [4]	solubility at 4 h [5] [µg/mL]	SMILES
≧20.1 mass %	≧10000 cm^−1	591	50000	A (retention of 100-90%)	–	–	CCCCCc1ccc(N=Nc2cc(C(=O)OCCC)c(N=Nc3ccc(N(CC(CC)CCCC)CC(CC)CCCC)cc3CC)s2)cc1 (stereo not drawn) [Compound 5]
–	–	–	–	–	2.0	≤ 1	CCCCCCCCCC [n-decane]
1.7 mass %	1220 cm⁻¹	608	62000	A (retention of 100-90%)	–	–	CCCCc1ccc(N=Nc2sc(N=Nc3ccc(N(CC(CC)CCCC)CC(CC)CCCC)cc3C)c(C#N)c2C)cc1 (stereo not drawn) [Compound 2]
≧15 mass %	≧9000 cm^−1	595	57000	A (retention of 100-90%)	–	–	CCCCc1ccc(N=Nc2cc(C#N)c(N=Nc3sc(N(CC(CC)CCCC)CC(CC)CCCC)nc3C(C)(C)C)s2)cc1 (stereo not drawn) [Compound 10]
